The source made the active and inactive calls. No cut-off for these calls is given here.
What was measured:
SARS-CoV-2 [1] = assay: Antiviral activity against SARS-CoV-2 infected in African green monkey Vero cells assessed as reduction in viral N protein level at 0.1 uM measured after 1 day by Western blot analysis; assay type: functional, organism-based; conditions: Severe acute respiratory syndrome coronavirus 2
[2] = Selectivity index, ratio of CC50 for cytotoxicity against African green monkey Vero cells to EC50 for antiviral activity against SARS-CoV-2 infected in african green monkey Vero cells assessed as reduction in number of spike-protein expressing cells; assay type: toxicity, cell-based; conditions: read-out: Ratio CC50/EC50
SARS-CoV-2 [3] = assay: Antiviral activity against SARS-CoV-2 infected in african green monkey Vero cells assessed as reduction in number of spike-protein expressing cells pre-infected for 30 mins followed by compound addition and measured 48 hrs post-infection by DAPI staining based immunofluorescence analysis; assay type: functional, organism-based; conditions: Severe acute respiratory syndrome coronavirus 2, Vero
[4] = Cytotoxicity against African green monkey Vero cells assessed as reduction in cell viability incubated for 48 hrs by MTT assay; assay type: toxicity, cell-based; conditions: chlorocebus sabaeus
[5] = molecular target: Replicase polyprotein 1ab (Severe acute respiratory syndrome coronavirus 2) (UniProt P0DTD1); assay: (§1) Inhibition of SARS-CoV-2 Nsp12-Nsp7-Nsp8-2 RNA dependent RNA polymerase activity using partially double stranded RNA as substrate assessed as generation of abortive transcripts by mis-incorporation into RNA at 100 uM incubated for 30 mins in presence of ATP and GTP/CTP by gel electrophoresis based primer extension assay
[6] = molecular target: Replicase polyprotein 1ab (Severe acute respiratory syndrome coronavirus 2) (UniProt P0DTD1); assay: as §1, with “ATP” for “ATP and GTP/CTP”
[7] = molecular target: Replicase polyprotein 1ab (Severe acute respiratory syndrome coronavirus 2) (UniProt P0DTD1); assay: (§2) Inhibition of SARS-CoV-2 Nsp12-Nsp7-Nsp8-2 RNA dependent RNA polymerase activity using partially double stranded RNA as substrate assessed as accumulation of abortive transcripts incubated for 30 mins in presence of UTP,ATP and GTP/CTP by gel electrophoresis based primer extension assay; conditions: dose 2.5-250 µM
[8] = molecular target: Replicase polyprotein 1ab (Severe acute respiratory syndrome coronavirus 2) (UniProt P0DTD1); assay: as §1, with “as” for “as generation of abortive transcripts by”, “by measuring increase in abortive transcripts length” for “at 100 uM”, “ATP” for “ATP and GTP/CTP”; conditions: dose 1-100 µM
[9] = tested on: Severe acute respiratory syndrome coronavirus 2; assay: Inhibition of SARS-CoV-2 Nsp9/Nsp12 using 5'-pppLS10 as substrate assessed as inhibition of NiRAN-mediated RNAylation of Nsp9 by measuring increase in compound-conjugated Nsp9 incubated for 1 hrs by coomassie blue staining based SDS-PAGE analysis; conditions: dose 1-100 µM
[10] = tested on: Severe acute respiratory syndrome coronavirus 2; assay: Inhibition of SARS-CoV-2 Nsp9/Nsp12 using 5'-pppLS10 as substrate assessed as inhibition of NiRAN-mediated UMPylation of Nsp9 at 1 to 100 uM preincubated for 5 mins followed by UTP and [alpha-32P]UTP addition and measured after 10 mins by phosphorimaging based SDS-PAGE analysis; conditions: dose 1-100 µM, time 15.0 min
[11] = tested on: Severe acute respiratory syndrome coronavirus 2; assay: Inhibition of SARS-CoV-2 Nsp9/Nsp12 using 5'-pppLS10 as substrate assessed as inhibition of NiRAN-mediated AMPylation of Nsp9 at 1 to 100 uM preincubated for 5 mins followed by ATP and [alpha-32P]ATP addition and measured after 10 mins by phosphorimaging based SDS-PAGE analysis; conditions: dose 1-100 µM, time 15.0 min
[12] = tested on: Severe acute respiratory syndrome coronavirus 2; assay: Inhibition of SARS-CoV-2 Nsp9/Nsp12 using 5'-pppLS10 as substrate assessed as inhibition of NiRAN-mediated RNAylation of Nsp9 by measuring increase in compound-conjugated Nsp9 at 1 to 100 uM incubated for 1 hrs by coomassie blue staining based SDS-PAGE analysis; conditions: dose 1-100 µM
[13] = molecular target: Replicase polyprotein 1ab (Severe acute respiratory syndrome coronavirus 2) (UniProt P0DTD1); assay: as §1, with “UTP” for “ATP and GTP/CTP”
[14] = molecular target: Replicase polyprotein 1ab (Severe acute respiratory syndrome coronavirus 2) (UniProt P0DTD1); assay: as §1, with “UTP” for “ATP”
[15] = molecular target: Replicase polyprotein 1ab (Severe acute respiratory syndrome coronavirus 2) (UniProt P0DTD1); assay: as §2, with “transcripts at 2.5 to 250 uM” for “transcripts”; conditions: dose 2.5-250 µM
[16] = molecular target: Replicase polyprotein 1ab (Severe acute respiratory syndrome coronavirus 2) (UniProt P0DTD1); assay: Inhibition of SARS-CoV-2 Nsp12-Nsp7-Nsp8-2 RNA dependent RNA polymerase activity using partially double stranded RNA as substrate assessed as reduction in RNA elongation at 1 to 100 uM incubated for 30 mins in presence of UTP and GTP/CTP by gel electrophoresis based primer extension assay; conditions: dose 1-100 µM
SARS-CoV-2 [17] = assay: (§3) Antiviral activity against SARS-CoV-2 infected in hACE2 expressing female B6.Cg-Tg(K18-ACE2)2Prlmn/J mouse model assessed as reduction in body weight loss at 50 mg/kg, po preadministered twice daily for 4 days at 8 hrs interval with four hours before and after viral challenge and measured 14 days post viral challenge; assay type: functional, organism-based; conditions: Severe acute respiratory syndrome coronavirus 2, time 14.0 day
SARS-CoV-2 [18] = assay: as §3, with “8” for “14”; assay type: functional, organism-based; conditions: Severe acute respiratory syndrome coronavirus 2, time 8.0 day
SARS-CoV-2 [19] = assay: Antiviral activity against SARS-CoV-2 infected in hACE2 expressing female B6.Cg-Tg(K18-ACE2)2Prlmn/J mouse model assessed as survival at 50 mg/kg, po preadministered twice daily for 4 days at 8 hrs interval with four hours before and after viral challenge and measured 14 days post viral challenge relative to control; assay type: functional; conditions: Severe acute respiratory syndrome coronavirus 2, 336 h, time 14 day

Row | Compound | selectivity ratio [2] | EC50 (SARS-CoV-2 [3]) [µM] | CC50 at 48 h [4] [µM] | other results
1 | O=c1nc(NO)ccn1[C@@H]1O[C@H](CO)[C@@H](O)[C@H]1O [N-HYDROXYCYTIDINE] | 37.5 | 1.03 | 38.6 | Activity (SARS-CoV-2 [1]): Active
2 | Cc1cn([C@@H]2S[C@H](CO)[C@@H](O)[C@H]2O)c(=O)[nH]c1=O |  | > 100 | > 100 | 
3 | C[C@@]1(F)[C@H](O)[C@@H](COP(=O)(O)OP(=O)(O)OP(=O)(O)O)O[C@H]1n1ccc(=O)[nH]c1=O |  |  |  | inhibition [5]: inactive; inhibition ([6]; dose 100.0 µM, time 30.0 min): inactive
4 | CC(C)OC(=O)[C@H](C)N[P@](=O)(OC[C@H]1S[C@@H](n2ccc(=O)[nH]c2=O)[C@H](O)[C@@H]1O)Oc1ccccc1 |  | > 100 | > 100 | 
5 | Nc1ccn([C@@H]2S[C@H](CO)[C@@H](O)[C@H]2O)c(=O)n1 | > 41.7 | 2.4 | > 100 | 
6 | Nc1ncnc2c1ncn2[C@@H]1S[C@H](CO)[C@@H](O)[C@H]1O | 10.7 | 8.82 | 94.3 | 
7 | O=c1ccn([C@@H]2S[C@H](COP(=O)(O)OP(=O)(O)OP(=O)(O)O)[C@@H](O)[C@H]2O)c(=O)[nH]1 |  |  |  | inhibition [7]: Dose-dependent-effect; inhibition [8]: Dose-dependent-effect; Transcripts Remained Below 27 Nucleotides; inhibition [9]: Dose-dependent-effect; inhibition [10]: Active; inhibition [11]: Active; inhibition ([6]; 100 uM): Active; Compound Led To Rna Products Longer Than 20 Nucleotides But Did Not Reach 27-Mer Rna
8 | CC(C)C(=O)OC[C@H]1S[C@@H](n2ccc(=O)[nH]c2=O)[C@H](O)[C@@H]1O | > 3.73 | 26.8 | > 100 | 
9 | C[C@@]1(F)[C@H](O)[C@@H](COP(=O)(O)OP(=O)(O)OP(=O)(O)O)O[C@H]1n1cnc2c(=O)[nH]c(N)nc21 |  |  |  | inhibition [12]: Active
10 | Nc1nc2c(ncn2[C@@H]2S[C@H](CO)[C@@H](O)[C@H]2O)c(=O)[nH]1 | > 2.07 | 48.3 | > 100 | 
11 | C[C@H](Cn1cnc2c(N)ncnc21)OCP(=O)(O)OP(=O)(O)OP(=O)(O)O |  |  |  | inhibition ([13]; 100 uM): Active; Compound Produced A Primer Extension Of ~22 Nucleotides Similar To Atp Starvation Condition; inhibition [14]: Active; Compound Produced A Primer Extension Of ~22 Nucleotides Similar To Atp Starvation Condition
12 | N#C[C@@]1(c2ccc3c(N)ncnn23)O[C@H](COP(=O)(O)OP(=O)(O)OP(=O)(O)O)[C@@H](O)[C@H]1O |  |  |  | inhibition ([13]; dose 100.0 µM, time 30.0 min): Not active; Formation Of 27-Mer Product Observed; inhibition [15]: Minimal_effect; inhibition [16]: Not active; Formation Of Full-Length 40-Mer Product Is Still Prevented
13 | CC(C)C(=O)OC[C@H]1O[C@@H](n2cc/c(=N\O)[nH]c2=O)[C@H](O)[C@@H]1O [MOLNUPIRAVIR] |  |  |  | Activity (SARS-CoV-2 [17]): Active; Activity (SARS-CoV-2 [18]): Active; survival at 50 mg/kg (SARS-CoV-2 [19]): 60%

Source: ChEMBL document CHEMBL6182943, “Identification of 4'-Thiouridine as an Orally Available Antiviral Agent Targeting Both RdRp and NiRAN Functions of SARS-CoV-2 Nsp12” (J Med Chem, 2025)
